# Patent US20260306476A1, “ANTIBACTERIAL COMPOUND PBT2” (priority 2022, published 2026)
# Entries after “also recorded” stand apart in the source; their conditions may differ.
# Columns and labels:
# [1] = system: Neisseria gonorrhoeae WHO X; experiment: MIC of PBT2 alone (broth and agar); assay type: cell-based
# Excerpt: (§1) 13 multidrug resistant WHO strains of Neisseria gonorrhoeae were selected to cover antimicrobial resistance phenotypes to all the antibiotics currently used. MS11 is a laboratory strain and ATCC49226 is a CLSI standard MIC control strain (CLSI. 2022. Performance Standards for Antimicrobial Susceptibility Testing, 32nd Edition. Clinical and Laboratory Standards Institute which is hereby incorporated by reference in its entirety). The MICs (minimum inhibitory concentration) of PBT2 alone in the absence of zinc or a further antimicrobial agent against these Neisseria gonorrhoea strains are summarised in Table 1.
# [2] = system: Neisseria gonorrhoeae WHO L; experiment: MIC of PBT2 alone (broth and agar); assay type: cell-based
# Excerpt: as §1
# [3] = system: Neisseria gonorrhoeae WHO F; experiment: MIC of PBT2 alone (broth and agar); assay type: cell-based
# Excerpt: as §1
# Neisseria meningitidis = experiment: MIC / susceptibility across Neisseria meningitidis strains; conditions: all strains tested; for MIC: Neisseria meningitidis
# [4] = system: Neisseria gonorrhoeae strain WHO Z; experiment: Ex vivo Neisseria gonorrhoeae infection of human cervical (Pex) cells; assay type: cell-based
# Excerpt: FIG. 4: Chart indicating PBT2 can cure Neisseria gonorrhoeae infection of human cervical (Pex) cells. […] Ceftriaxone (CRO, positive control) is currently recommended for gonorrhoea treatment. Veh—0.1% DMSO vehicle control; UT—untreated; * p<0.0001 versus vehicle for CRO or PBT2 treatment.
# To assess the ability of PBT2 to cure an established gonococcal infection in a human ex vivo system, primary human cervical epithelial (Pex) cells were challenged with Neisseria gonorrhoeae strain WHO Z for 90 min and then treated with 0.1% DMSO (vehicle control), PBT2 (0.016 mg/L to 4.695 mg/L), or ceftriaxone (0.5 mg/L, positive control) for 24 h. Viable gonococci were then enumerated. […] PBT2-induced Pex cell cytotoxicity was not observed during the assay.
# [5] = system: Neisseria meningitidis 8013 (C); experiment: MIC of PBT2 (broth and agar)
# Neisseria gonorrhoeae [6] = experiment: Antibiotic resistance development test over 30 days; assay type: cell-based; conditions: 30 days of daily subculture; sub-MIC PBT2 (0.156 mg/L)
# Description: FIG. 2: Antibiotic resistance development assay of PBT2.
# Resistance development was tested over a 30 day period with PBT2 and using Kanamycin as a control.
# [7] = system: non-typeable Haemophilus influenzae (NTHi); experiment: Sensitivity across NTHi strains; assay type: cell-based; conditions: all strains tested
# Description: The MIC of PBT2 against five non-typeable Haemophilus influenzae (NTHi) strains was determined (CLSI. 2022. Performance Standards for Antimicrobial Susceptibility Testing, 32nd Edition. Clinical and Laboratory Standards Institute).
# [8] = system: gram-positive and gram-negative bacteria; conditions: PBT2 in the presence of zinc; cited from earlier work
# [9] = system: Helicobacter pylori CH426; experiment: MIC of PBT2 alone (agar); assay type: cell-based
# Neisseria gonorrhoeae [10] = experiment: MIC / susceptibility across Neisseria gonorrhoeae strains; assay type: cell-based; conditions: for MIC: Neisseria gonorrhoeae
# Excerpt: as §1
# [11] = system: methicillin-resistant Staphylococcus aureus (MRSA); conditions: in the absence of an antibiotic; cited from earlier work
# [12] = system: erythromycin-resistant group A Streptococcus (GAS); conditions: in the absence of an antibiotic; cited from earlier work
# [13] = system: vancomycin-resistant Enterococcus (VRE); conditions: in the absence of an antibiotic; cited from earlier work
# [14] = system: Helicobacter pylori CH428; experiment: MIC of PBT2 alone (agar); assay type: cell-based
# [15] = system: Neisseria gonorrhoeae strain WHO Z; experiment: MIC of Triton X-100 with/without PBT2; assay type: cell-based; conditions: 0.156 mg/L (sub-MIC) PBT2
# Excerpt: Without wishing to be bound by theory, the inventors hypothesise that this may due to the fact PBT2 is a derivative of the iron chelator clioquinol and PBT2 has the capacity to chelate a range of heavy metals including iron. Genes encoding metal homeostasis proteins (blue dots) are presented in the volcano plot (FIG. 3). Metal homeostasis was previously identified as a crucial feature of gonococcal biology, and therefore it is postulated this may be an “Achilles' heel” with respect to Neisseria gonorrhoeae ionophore sensitivity. […] MpeR is an iron-repressed, AraC-like protein that regulates the mtr efflux locus (involved in antimicrobial susceptibility) in Neisseria gonorrhoeae. Up-regulation of mpeR (e. g. by PBT2) down-regulates MtrF and, in turn, would increase Neisseria gonorrhoeae sensitivity to the antimicrobial detergent, Triton X-100 (22). […] Thus, without wishing to be bound to theory, the inventors hypothesise that PBT2 may influence bacterial iron homeostasis and trigger general defence mechanisms, such as Mtr-mediated antimicrobial efflux, but the Mtr-system may be unable to protect against PBT2.
# [16] = system: Neisseria gonorrhoeae WHO Z; experiment: Time-kill assay; assay type: cell-based; conditions: PBT2 alone at 0.313 mg/L (MIC)
# Excerpt: FIG. 1: Time-kill curves of Neisseria gonorrhoeae WHO Z in GC broth with or without PBT2. Error bars indicate standard deviation from 3 biological replicates.
smiles,measurement,setting,value
"CN(C)Cc1ccc2c(Cl)cc(Cl)c(O)c2n1 [PBT2, 5,7-dichloro-2-[(dimethylamino)methyl]quinolin-8-ol]",MIC,[1]; agar,0.625 µg/mL
same,MIC,[1]; broth,0.156 µg/mL
same,MIC,[2]; agar,0.625 µg/mL
same,MIC,[2]; broth,0.156 µg/mL
same,MIC,[3]; agar,0.312 µg/mL
same,MIC,[3]; broth,0.156 µg/mL
same,MIC,Neisseria meningitidis; agar,0.039 to 0.156 µg/mL
same,MIC,Neisseria meningitidis; broth,0.156 to 0.625 µg/mL
same,sensitivity,Neisseria meningitidis,sensitive
same,reduction in Neisseria gonorrhoeae survival,"[4]; 24 h post-treatment, PBT2 0.016 to 4.695 mg/L, FIG. 4",dose-dependent reduction
same,effectiveness versus ceftriaxone (0.5 mg/L),"[4]; >0.157 mg/L PBT2, 24 h","comparable effectiveness to that observed for the control antibiotic, ceftriaxone"
same,p versus vehicle,"[4]; survival at 24 h, FIG. 4, CRO 0.5 mg/L",< 0.0001
same,MIC,[5]; agar,0.078 µg/mL
same,MIC,[5]; broth,0.156 µg/mL
same,antibiotic resistance development,Neisseria gonorrhoeae [6],No antibiotic resistance was observed; also recorded: no visible development of resistance
same,sensitivity,[7],sensitive
same,susceptibility of bacteria to antibiotics,[8],more susceptible to antibiotics
same,MIC,[9],1.25 µg/mL
same,MIC,Neisseria gonorrhoeae [10]; MDR Neisseria gonorrhoeae,0.313 µg/mL
same,MIC,"Neisseria gonorrhoeae [10]; all strains tested, agar, PBT2 alone",0.312 to 0.625 µg/mL
same,MIC,"Neisseria gonorrhoeae [10]; all strains tested, broth, PBT2 alone",0.156 to 0.312 µg/mL
same,susceptibility,"Neisseria gonorrhoeae [10]; all strains tested, PBT2 alone",highly susceptible
same,antibacterial activity,[11],neither PBT2 nor zinc alone displayed antibacterial activity which would be suitable to treat an infection
same,antibacterial activity,[12],neither PBT2 nor zinc alone displayed antibacterial activity which would be suitable to treat an infection
same,antibacterial activity,[13],neither PBT2 nor zinc alone displayed antibacterial activity which would be suitable to treat an infection
same,MIC,[14],2.5 µg/mL
same,effect on sensitivity to Triton X-100,[15],increased the sensitivity
same,time in which antibacterial activity occurred,[16],≤ 3 h
